Data published in patent publication US11542261B2, “Substituted Imidazo[1,2-a]-pyridines as IRAK 1/4 and FLT3 inhibitors” (CHILDREN'S HOSPITAL MEDICAL CENTER, priority 2016, dated 2023).

Tests used:
[1] = test system: THP-1 cells; test: Inhibitory activity against THP-1 cells; assay type: cell-based; conditions: THP-1 cells (FLT3 wild type AML); data not shown
[2] = Rat microsomal stability (RLM); assay type: in vitro ADME; conditions: Table 10
[3] = test system: IRAK4 phosphorylation; test: Immunoblot of P-IRAK4 in FLT3-ITD AML cells; assay type: cell-based, human; conditions: 50 nM
[4] = test system: MLL-AF9/FLT3-ITD cells; assay type: cell-based; conditions: Homo sapiens, MLL-AF9, Table 10
[5] = test system: MLL-AF9 NRas cells; test: NRAS IC50 (MLL-AF9 NRas cells); assay type: cell-based; conditions: Table 10
[6] = test system: FLT3 phosphorylation; test: Immunoblot of phosphorylated FLT3 in MV4;11 cells; assay type: cell-based, human; conditions: 50 nM, 24 hours
[7] = test system: MDSL cells; test: MDSL cell growth, Cell-titer glow, 72 hours; assay type: cell-based, human
Experimental: In a 96-well culture plate (Corning Inc. Costar), 25000 cells were plated in 200 μL media per well. In triplicate, 2 μL of the indicated inhibitor (100× in DMSO) was added to each well and cells treated with 2 μL DMSO alone was used as the control. Treated cells were incubated at 37° C. for 72 hours. In a white 96-well assay plate (Corning Inc. Costar), 100 μL of the treated cells were transferred and brought to room temperature. An equal volume of CellTiter-Glo Reagent at room temperature was added to the cells and the plate was rocked for 2 minutes, followed by 10 minutes of rest. Analysis was performed using GloMax 96 microplate Luminometer (Promega) with GloMax Software.
FIG. 10—Methods: (FIG. 10A) Colony formation of MDSL cells was determined in methylcellulose supplemented with 1 μM or 10 μM of the indicated compounds. Colony formation was determined after 10 days.

[8] = target: CDK7 (Homo sapiens (Human), UniProt P50613); test: KiNativ in situ kinase profiling in MV4:11 cell lysates; assay type: biochemical
Experimental: (§1) FIG. 18A depicts the labeling site key. FIG. 18B depicts estimated IC50 values. FIG. 18C depicts the full IC50 list for the various kinases. This is an in situ kinase profiling assay; details and methodology are available at www kinativ com. The assay was performed in lysates of MV-4-11 cells which were pretreated for 15 minutes with the inhibitor before the ATP probe was added.
(§2) The KiNativ® assay is an in situ kinase profiling assay; details and methodology are available at www kinativ com. This assay uses the form of the enzyme that is found in actual cells. The assay is run either in cell lysates or in whole cells, with the drug of interest added either to the cell lysates (i.e. cells that have been popped open) or to the outside of the cell in a whole cell assay prior to making the cell lysates. The whole cell assay is optimal because the drug must pass through the cell membrane to get to the cytoplasm where the kinase resides if the kinase is a cytosolic kinase, as is the case for IRAK, or the location of the kinase domain for the FLT3 receptor kinase domain. In the case of FIG. 18, the KiNativ assay was run on cell lysates from the MV4:11 cells. The MV4:11 cells are a FLT3-ITD positive cell line.
(§3) FLT3 is not captured by the KiNativ technology. The KiNativ assay is done in the actual cellular milieu, where the kinase domains are in their more natural states and subject to more native regulatory elements (e.g. other protein domains within the kinase itself that might not be present in the Reaction Biology assay, and which might otherwise obscure access to the active site by our ligand).

[9] = target: MINK (Homo sapiens (Human), UniProt Q8N4C8); test: as above; assay type: biochemical
Experimental: as §1, §2, §3

[10] = target: GAK (Homo sapiens (Human), UniProt O14976); test: as above; assay type: biochemical
Experimental: as §1, §2, §3

[11] = target: PCTAIRE3 (Homo sapiens (Human), UniProt Q07002); test: as above; assay type: biochemical
Experimental: as §1, §2, §3

[12] = target: T1, IRAK1 (Homo sapiens (Human), UniProt P51617); test: as above; assay type: biochemical
Experimental: as §1, §2, §3

[13] = target: PCTAIRE2 (Homo sapiens (Human), UniProt Q00537); test: as above; assay type: biochemical
Experimental: as §1, §2, §3

[14] = target: PCTAIRE1 (Homo sapiens (Human), UniProt Q00536); test: as above; assay type: biochemical
Experimental: as §1, §2, §3

[15] = target: HGK (Homo sapiens (Human), UniProt O95819); test: as above; assay type: biochemical
Experimental: as §1, §2, §3

[16] = target: LYN (Homo sapiens (Human), UniProt P07948); test: as above; assay type: biochemical
Experimental: as §1, §2, §3

[17] = target: TNIK (Homo sapiens (Human), UniProt Q9UKE5); test: as above; assay type: biochemical
Experimental: as §1, §2, §3

[18] = target: ABL (Homo sapiens (Human), UniProt P00519); test: as above; assay type: biochemical
Experimental: as §1, §2, §3

[19] = test system: IRAK4 phosphorylation; test: Immunoblot of phosphorylated IRAK4 in MDSL cells; assay type: cell-based, human; conditions: 24 hours
[20] = test system: MLL-AF9 FLT3-ITD cells
[21] = test system: Kasumi-1 cells; test: Synergy of I-24/1481 with venetoclax in Kasumi-1 cells (MTS); assay type: cell-based
[22] = test system: THP-1 cells; test: Synergy of I-24/1481 with venetoclax in THP-1 cells (MTS); assay type: cell-based; conditions: combined with an IC50 concentration of I-24/1481
Experimental: Data were analyzed by Prism v 8. […] FIG. 14C depicts the relevant heat maps; data in the upper heat map indicates the Bliss Scores, and the lower heat map indicates the individual data points for the various dose response curves. Methods: Day 0: Cell Line Plating in growth media recommended by ATCC using Tecan Fluent in 96 well plate (Eppendorf 0030730011); Day 1: Drug Addition. Venetoclax obtained from Selleckchem (S8048); Day 1→4: Incubate with Drug for 72 Hrs at 37 C, 5% CO2; Day 5: Add 20% original volume MTS (Promega G5440) and incubate for 4 Hrs; Add 25% original volume 10% SDS (Invitrogen 24730-020) to lyse cells and stop conversion of MTS to formazan. Read out is colorimetric at 490 nm using a BioTek Synergy Neo Plate Reader.

[23] = target: T1, IRAK1; test: HotSpot kinase IC50 assay; assay type: biochemical; conditions: 10 μM ATP
[24] = target: IRAK4 (Homo sapiens (Human), UniProt Q9NWZ3); test: HotSpot kinase IC50 assay; assay type: biochemical; conditions: 10 μM ATP

In the case of `Clc1ccc2ncc(-c3cccc(NC4CCNCC4)n3)n2c1` [Compound I-2, 6-(6-chloroimidazo[1,2-a]pyridin-3-yl)-N-(piperidin-4-yl)pyridin-2-amine], the “concentration without any inhibitory activity” value [1] is reported as > 10 µM and the Stability [2] is reported as >30.0 min.

In the case of `COc1cc2ncc(-c3cccc(NC4CCNC4)n3)n2cc1-c1cn[nH]c1` (stereo not shown) [Compound I-20, 6-(7-methoxy-6-(1H-pyrazol-4-yl)imidazo[1,2-a]pyridin-3-yl)-N-(pyrrolidin-3-yl)pyridin-2-amine], the “compensatory phosphorylation of IRAK4” value [3] is reported as “did not result in compensatory phosphorylation of IRAK4”, the IC50 [4] is reported as 40 nM and the IC50 [5] is reported as 33.2 µM. For the same compound, the FLT3 phosphorylation [6] was “inhibited FLT3 phosphorylation comparably to AC220”.

In the case of `COc1cc2ncc(-c3cccc(NC4CCNC4)n3)n2cc1-c1cnn(C)c1` (stereo not shown) [Compound I-24, 6-(7-methoxy-6-(1-methyl-1H-pyrazol-4-yl)imidazo[1,2-a]pyridin-3-yl)-N-(pyrrolidin-3-yl)pyridin-2-amine], the MDSL growth [7] is reported as “increased ability to inhibit MDSL growth compared to IRAK-Inh”, the “concentration without any inhibitory activity” value [1] is reported as > 10 µM and the IC50 [8] is reported as < 250 nM. The IC50 [9] was < 250 nM, the IC50 [10] was < 250 nM and the IC50 [11] was < 250 nM. The IC50 [12] was < 250 nM, the IC50 [13] was < 250 nM and the IC50 [14] was < 250 nM. The IC50 [15] was < 250 nM, the IC50 [16] was < 250 nM and the IC50 [17] was < 250 nM. For the same compound, the IC50 [18] was < 250 nM, the IRAK4 phosphorylation [19] was “effectively inhibited pIRAK4” and the FLT3 phosphorylation [6] was “inhibited FLT3 phosphorylation comparably to AC220”.

For `COc1cc2ncc(-c3cccc(NC4CCNC4)n3)n2cc1-c1nnn[nH]1` (stereo not shown) [Compound I-38], the IC50 [4] was 6260 nM, the Stability [2] was >30.0 min and the IC50 [5] was 0.002 µM.

In the case of `COc1cc2ncc(-c3cccc(NC4CCNC4)n3)n2cc1C#N` (stereo not shown) [Compound I-39], the IC50 [4] is reported as 33 nM, the Stability [2] is reported as 8.8 min and the IC50 [5] is reported as 5.58 µM.

With `Clc1cn2c(-c3cccc(NC4CCNC4)n3)cnc2cc1OCCN1CCOCC1` (stereo not shown) [Compound I-40] the IC50 [4] was 8 nM, the Stability [2] was >30.0 min and the IC50 [5] was 0.626 µM.

With `Cn1cc(-c2ccc3ncc(-c4cccc(NC5CNC5)n4)n3c2)cn1` [Compound I-46] the IC50 [4] was 213 nM, the Stability [2] was >30.0 min and the IC50 [5] was 16.6 µM.

In the case of `CC1(C)CCC(CN2CCN(c3ccc(C(=O)NS(=O)(=O)c4ccc(NCC5CCOCC5)c([N+](=O)[O-])c4)c(Oc4cnc5[nH]ccc5c4)c3)CC2)=C(c2ccc(Cl)cc2)C1` [Venetoclax, venetoclax], the “fold shift of Venetoclax IC50” value ([20]; combined with 0.2 nM 1481) is reported as 50 fold, the IC50 ([20]; read-out: IC50 alone, single agent) is reported as 3.16 µM and the IC50 ([21]; Homo sapiens, denominator of the dose ratio, read-out: concentration giving the IC50 response when administered alone) is reported as 3.6 µM. The “fold shift of Venetoclax IC50” value ([21]; combined with a minimally active concentration of I-24/1481) was ~15 fold and the “shift of venetoclax IC50” value [22] was 15,000 times.

In the case of `CC(C)(C)c1cc(NC(=O)Nc2ccc(-c3cn4c(n3)sc3cc(OCCN5CCOCC5)ccc34)cc2)no1` [quizartinib], the IC50 [23] is reported as “inactive” and the IC50 [24] is reported as “inactive”.
